In ChEMBL document CHEMBL1132317, “Solution structure of iron(III)-anthracycline complexes” (J Med Chem, 1999):

Tested on: K562
Test: Cytotoxic activity against K562 erythroleukemic cells
Type: functional, cell-based
Conditions: Homo sapiens

Structure (SMILES): CC(=O)[C@]1(O)Cc2c(O)c3c(c(O)c2[C@@H](O[C@H]2C[C@H](N)[C@H](O)[C@H](C)O2)C1)C(=O)c1ccccc1C3=O [IDARUBICIN]
- IC50: 2 nM
